ChEMBL document CHEMBL2218064, “Structure-activity relationship data for chemical series of antagonists of the P2X7 receptor (Supplementary Bioactivity Data for publication CHEMBL1157114)”

target: T1, P2X purinoceptor 7 (Homo sapiens, UniProt Q99572); assay: SUPPLEMENTARY: Inhibition of human P2X7 receptor assessed as inhibition of ethidium bromide accumulation. Same assay as CHEMBL1103860
T1 sequence (Q99572 whole entry): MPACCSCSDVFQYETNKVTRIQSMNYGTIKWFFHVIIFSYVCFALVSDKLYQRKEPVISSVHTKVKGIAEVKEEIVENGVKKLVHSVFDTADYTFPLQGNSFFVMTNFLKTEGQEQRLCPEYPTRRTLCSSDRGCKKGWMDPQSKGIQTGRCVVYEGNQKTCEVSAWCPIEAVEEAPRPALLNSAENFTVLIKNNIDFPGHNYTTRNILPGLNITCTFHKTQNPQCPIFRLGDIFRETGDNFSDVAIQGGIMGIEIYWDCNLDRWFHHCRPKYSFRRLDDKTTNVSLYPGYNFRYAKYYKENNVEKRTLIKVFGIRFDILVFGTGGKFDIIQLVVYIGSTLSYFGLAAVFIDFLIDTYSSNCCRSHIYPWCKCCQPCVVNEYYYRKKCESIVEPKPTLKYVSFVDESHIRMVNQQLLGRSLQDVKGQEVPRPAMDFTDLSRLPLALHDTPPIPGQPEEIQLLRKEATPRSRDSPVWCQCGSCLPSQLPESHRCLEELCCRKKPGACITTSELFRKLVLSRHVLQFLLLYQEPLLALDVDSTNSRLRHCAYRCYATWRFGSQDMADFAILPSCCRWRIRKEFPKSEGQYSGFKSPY

| Structure (SMILES) | IC50 [µM] |
| --- | --- |
| O=C(NCc1ccc(Cl)cc1Cl)C1CC(=O)N(Cc2ccccc2)C1 (centres undefined) | 0.158 |
| CCN1C(=O)CC[C@@H]1C(=O)NCc1c(Cl)cccc1Cl | 0.631 |
| CC(C)CN1CC(C(=O)NCc2ccc(Cl)cc2Cl)CC1=O (centres undefined) | 0.0794 |
| Cc1c(Cl)cccc1CNC(=O)[C@@H]1CCC(=O)N1C | 0.0158 |
| CN1C(=O)CC[C@H]1C(=O)NCc1cccc(C(F)(F)F)c1F | 0.0251 |
| CN1C(=O)CC[C@H]1C(=O)NCc1cccc(Cl)c1F | 0.126 |
| CCN1C(=O)c2ccccc2C1C(=O)NCc1ccc(Cl)cc1Cl (centres undefined) | 0.398 |
| CCN1C(=O)c2ccccc2C1C(=O)NCc1cccc(C(F)(F)F)c1Cl (centres undefined) | 0.0794 |
| CN1C(=O)c2ccccc2C1C(=O)NCc1ccc(Cl)cc1Cl (centres undefined) | 0.126 |
| CN1C(=O)c2ccccc2C1C(=O)NCc1ccc(F)cc1Cl (centres undefined) | 0.316 |
| CN1C(=O)c2ccccc2C1C(=O)NCc1cccc(C(F)(F)F)c1Cl (centres undefined) | 0.0158 |
| CCN1C(=O)CCC1(C)C(=O)NCc1ccc(Cl)cc1Cl (centres undefined) | 0.1 |
| CC1(C(=O)NCc2ccc(Cl)cc2Cl)CCC(=O)N1C1CC1 (centres undefined) | 0.01 |
| O=C(NCc1ccc(Cl)cc1Cl)C1CCC(=O)N1C1CC1 (centres undefined) | 0.00316 |
| CC(C)N1C(=O)CCC1(C)C(=O)NCc1ccc(Cl)cc1Cl (centres undefined) | 0.2 |
| CCN1C(=O)CC[C@@H]1C(=O)NCc1cccc(C(F)(F)F)c1F | 0.158 |
| CCN1C(=O)CC[C@@H]1C(=O)NCc1ccc(F)cc1C(F)(F)F | 0.2 |
| CCN1C(=O)CC[C@@H]1C(=O)NCc1cccc(Cl)c1F | 0.794 |
| CCN1C(=O)CC[C@@H]1C(=O)NCc1ccc(F)c(F)c1Cl | 0.2 |
| CCN1C(=O)CC[C@@H]1C(=O)NCc1ccc(Cl)cc1C | 0.126 |
| CN1C(=O)CC[C@@H]1C(=O)NCc1ccc(F)cc1C(F)(F)F | 0.251 |

| Structure (SMILES) | IC50 [µM] |
| --- | --- |
| CN1C(=O)CC[C@@H]1C(=O)NCc1cccc(Cl)c1Cl | 0.0631 |
| O=C(NCc1ccc(F)cc1Cl)C1CCC(=O)N1C1CC1 (centres undefined) | 0.02 |
| O=C(NCc1ccc(F)cc1Cl)C1CC(=O)N(C2CC2)C1 (centres undefined) | 0.501 |
| CN1C(=O)CC[C@@H]1C(=O)NCc1cccc(C(F)(F)F)c1Cl | 0.0158 |
| Cc1c(Cl)cccc1CNC(=O)[C@H]1CCC(=O)N1C | 0.1 |
| CC1=CC(=O)N(C2CC2)C1C(=O)NCc1ccc(Cl)cc1Cl (centres undefined) | 0.631 |
| Cc1c(CNC(=O)[C@@H]2CCC(=O)N2C)cccc1C(F)(F)F | 0.00316 |
| CN1C(=O)CC[C@H]1C(=O)NCc1ccc(F)cc1Br | 0.0398 |
| CN1C(=O)CC[C@H]1C(=O)NCc1cccc(F)c1C(F)(F)F | 0.2 |
| CCN1C(=O)CC[C@H]1C(=O)NCc1ccc(F)c(Cl)c1Cl | 0.00316 |
| O=C(NCc1cccc(C(F)(F)F)c1Cl)C1CCC(=O)N1C1CC1 (centres undefined) | 0.00126 |
| CN1C(=O)CC[C@@H]1C(=O)NCc1cccc(C(F)(F)F)c1F | 0.2 |
| Cc1cc(Cl)cc(Cl)c1CNC(=O)[C@@H]1CCC(=O)N1C | 0.00126 |
| CN1C(=O)CC[C@H]1C(=O)NCc1cccc2ccccc12 | 0.00158 |
| CN1C(=O)CC[C@H]1C(=O)NCc1ccc(F)c(F)c1Cl | 0.0398 |
| CCN1C(=O)C(C)(C)CC1C(=O)NCc1ccc(Cl)cc1Cl (centres undefined) | 0.0251 |
| O=C(NCc1cccc(C(F)(F)F)c1Cl)[C@H]1CCC(=O)N1Cc1ccccc1 | 0.0316 |
| CC(C)(C)CN1C(=O)CC[C@H]1C(=O)NCc1cccc(C(F)(F)F)c1Cl | 0.0251 |
| O=C(NCc1cccc(C(F)(F)F)c1Cl)[C@H]1CCC(=O)N1C1CCCC1 | 0.1 |
| CN1C(=O)CC(C)(C)C1C(=O)NCc1cccc(C(F)(F)F)c1Cl (centres undefined) | 0.1 |
| CCC(C)N1C(=O)CC[C@@H]1C(=O)NCc1cccc(C(F)(F)F)c1Cl (some centres undefined) | 0.0631 |

| Structure (SMILES) | IC50 [µM] |
| --- | --- |
| CN1CC(C(=O)NCc2cccc(C(F)(F)F)c2Cl)CC1=O (centres undefined) | 0.0631 |
| O=C(NCc1cccc(C(F)(F)F)c1Cl)C1COCC(=O)N1Cc1ccccc1 (centres undefined) | 0.251 |
| O=C(NCc1ccc(Cl)cc1Cl)C1COCC(=O)N1Cc1ccccc1 (centres undefined) | 0.501 |
| O=C(NCc1ccc(F)cc1Cl)C1COCC(=O)N1Cc1ccccc1 (centres undefined) | 0.501 |
| CCN1C(=O)CC[C@H]1C(=O)NCc1cccc(C)c1C | 0.1 |
| CN1C(=O)CC[C@H]1C(=O)NCc1ccc(F)c(Cl)c1Cl | 0.0126 |
| CC(C)N1C(=O)CC[C@H]1C(=O)NCc1ccc(F)c(Cl)c1Cl | 0.00501 |
| Cc1c(Cl)cccc1CNC(=O)[C@@H]1CCC(=O)N1C(C)C | 0.0158 |
| CC(C)N1C(=O)CC[C@H]1C(=O)NCc1cccc(C(F)(F)F)c1Cl | 0.002 |
| Cc1c(CNC(=O)[C@@H]2CCC(=O)N2C(C)C)cccc1C(F)(F)F | 0.00398 |
| CC(C)N1C(=O)CC[C@H]1C(=O)NCc1cccc(Cl)c1Cl | 0.02 |
| CC(C)N1C(=O)CC[C@H]1C(=O)NCc1ccc(F)c(F)c1Cl | 0.02 |
| CC(C)N1C(=O)CC[C@H]1C(=O)NCc1ccc(Cl)cc1Cl | 0.00794 |
| CN1CC(C(=O)NCc2ccc(Cl)cc2Cl)CC1=O (centres undefined) | 0.158 |
| CCN1CC(C(=O)NCc2ccc(Cl)cc2Cl)CC1=O (centres undefined) | 0.126 |
| CCN1CC(C(=O)NCc2cccc(C(F)(F)F)c2Cl)CC1=O (centres undefined) | 0.0501 |
| CC(C)CN1CC(C(=O)NCc2cccc(C(F)(F)F)c2Cl)CC1=O (centres undefined) | 0.0631 |
| O=C(NCc1ccc(Cl)cc1Cl)C1CC(=O)N(C2CC2)C1 (centres undefined) | 0.126 |
| O=C(NCc1cccc(C(F)(F)F)c1Cl)C1CC(=O)N(C2CC2)C1 (centres undefined) | 0.0316 |
| CN1C(=O)OC[C@@H]1C(=O)NCc1cccc(C(F)(F)F)c1Cl | 0.0501 |
| CCN1[C@H](C(=O)NCc2ccc(Cl)cc2Cl)CCCS1(=O)=O | 0.2 |

| Structure (SMILES) | IC50 [µM] |
| --- | --- |
| CCN1[C@H](C(=O)NCc2ccc(F)cc2Cl)CCCS1(=O)=O | 0.631 |
| CN1[C@H](C(=O)NCc2ccc(Cl)cc2Cl)CCCS1(=O)=O | 0.251 |
| O=C(NCc1cccc(C(F)(F)F)c1Cl)C1CC(=O)N(Cc2ccccc2)C1 (centres undefined) | 0.316 |
| Cc1c(Cl)cccc1CNC(=O)[C@@H]1CCC(=O)N1C1CCC1 | 0.0158 |
| O=C1C(=O)N(c2cccc3ccccc23)CCN1Cc1c(F)cccc1Cl | 0.631 |
| O=C1C(=O)N(c2cccc3ccccc23)CCN1Cc1ccc(F)cc1Cl | 0.0631 |
| O=C(NCc1cccc(C(F)(F)F)c1Cl)[C@@H]1CCC(=O)N1C1CCC1 | 0.002 |
| O=C(NCc1ccc(Cl)cc1Cl)[C@@H]1CCC(=O)N1C1CCC1 | 0.00501 |
| O=C(NCc1ccc(F)c(F)c1Cl)[C@@H]1CCC(=O)N1C1CCC1 | 0.01 |
| O=C(NCc1cccc(Cl)c1Cl)[C@@H]1CCC(=O)N1C1CCC1 | 0.0126 |
| Cc1c(CNC(=O)[C@@H]2CCC(=O)N2C2CCC2)cccc1C(F)(F)F | 0.00316 |
| CCN1[C@H](C(=O)NCc2ccc(F)c(F)c2F)CCCS1(=O)=O | 0.631 |
| CC(C)CN1[C@H](C(=O)NCc2ccc(Cl)cc2Cl)CCS1(=O)=O | 0.158 |
| CC(C)CN1[C@H](C(=O)NCc2ccc(F)cc2Cl)CCS1(=O)=O | 0.501 |
| CN1C[C@@H](C(=O)NCc2ccc(F)c(F)c2Cl)N(C)C1=O | 0.00316 |
| O=C(NCc1ccc(Cl)cc1Cl)[C@H]1CCC(=O)N1Cc1cccnc1 | 0.0631 |
| O=C(NCc1cccc(C(F)(F)F)c1Cl)[C@H]1CCC(=O)N1Cc1cccnc1 | 0.0501 |
| Cc1cnn(C)c1CC(=O)NCc1ccc(F)c(F)c1Cl | 0.0316 |
| CCN1C(=O)CC[C@H]1C(=O)NCc1ccccc1C#N | 0.631 |
| CCN1C(=O)CC[C@H]1C(=O)NCc1cccc(C(F)(F)F)c1C#N | 0.00316 |
| C[C@H]1CC(=O)N(C)[C@@H]1C(=O)NCc1cccc(C(F)(F)F)c1Cl | 0.1 |
